Molecules are shown by their SMILES.

Broadly, the inhibition is the drop in the measured response relative to a control, in per cent.

For the first assay, the system named is Haemonchus contortus. In words: Method B: screening against Haemonchus contortus in vivo on Mongolian jirds (Meriones unguiculatus). To be noted: oral gavage, dose as low as 1 or 10 mg/kg, necropsy 3 days after treatment, vs placebo control group. As to the method: Method B: Screening Method to Test Activity of Compounds Against Haemonchus contortus in Vivo on Mongolian Jirds (Meriones unguiculatus). Mongolian jirds, at least five weeks old, were immunosuppressed and artificially infected with ca. 1000 ensheathed Haemonchus contortus third instar larvae. Six days after infection, the jirds were treated by oral gavage with the test compounds, dissolved in a mixture of 2 parts DMSO and 1 part polyethylene glycol (PEG400), at doses of 100 mg/kg and 10 mg/kg. Jirds treated only with the placebo (2 parts DMSO and 1 part PEG400) served as controls. On day 9 (3 days after treatment) the jirds were euthanized and necropsied for recovery of parasites from the stomach. Efficacy was calculated as the average % reduction in the number of worms in each test group compared with the average number of worms from the control group. […] Compound number 1, provided at least 95% reduction in nematode infestation at a dose as low as 1 or 10 mg/kg.
For the compound `CC(Cn1nc2c(Cl)cc(Cl)c(Cl)c2n1)(NC(=O)c1ccc(OC(F)(F)F)cc1)C(N)=S` (stereo not drawn) [Compound 1, N-[1-Methyl-1-thiocarbamoyl-2-(4,5,7-trichloro-2H-benzotriazol-2-yl)-ethyl]-4-trifluoromethoxybenzamide], the “reduction in nematode infestation” value is “at least 95%”.

The next assay relates to Haemonchus contortus. In words: Method A: screening of compounds against Haemonchus contortus L1 larvae in microtitre plate (development to L3). To be noted: 96 h, test concentration 0.01 ppm, 4 days assessment, 27° C., read-out: motility inhibition. As to the method:
Method A: Screening Method to Test Activity of Compounds Against Haemonchus contortus. Twenty L1 Haemonchus contortus larvae were added to wells of a microtitre plate containing a nutrient medium and the test compound in DMSO. The microtitre plate was then held at 27° C. where the L1 larvae were allowed to develop. An analysis was conducted at 4 days to determine successful development to the L3 stage. Larvae exposed to DMSO and no test compound served as controls. Compounds numbers 3, 4, 6 and 8 gave at least 90% motility inhibition at a test concentration of 0.15 ppm at the 4 days assessment. Compounds numbers 1, 2, 5 and 7 gave at least 90% motility inhibition at a test concentration of 0.01 ppm at the 4 days assessment.
As for `CC(COc1cc(C#N)ccc1C(F)(F)F)(NC(=O)c1ccc(SC(F)(F)F)cc1)C(N)=S` (stereo not drawn) [Compound 5], the inhibition at 0.01 ppm is at least 90%.

Take `CC(COc1cc(C#N)ccc1C(F)(F)F)(NC(=O)c1ccc(OC(F)(F)F)cc1)C(N)=S` (stereo not drawn) [Compound 7, N-[2-(5-Cyano-2-trifluoromethylphenoxy)-1-methyl-1-thiocarbamoyl-ethyl]-4-trifluoromethoxybenzamide]: the inhibition at 0.01 ppm was at least 90%.

In the case of `CC(Cn1nc2c(Cl)cc(Cl)c(Cl)c2n1)(NC(=O)c1ccc(SC(F)(F)F)cc1)C(N)=S` (stereo not drawn) [Compound 2], the inhibition at 0.01 ppm is at least 90%.

For `CC(Cn1nc2c(Cl)cc(Cl)c(Cl)c2n1)(NC(=O)c1ccc(OC(F)(F)F)cc1)C(N)=S` (stereo not drawn) [Compound 1, N-[1-Methyl-1-thiocarbamoyl-2-(4,5,7-trichloro-2H-benzotriazol-2-yl)-ethyl]-4-trifluoromethoxybenzamide], the inhibition at 0.01 ppm is at least 90%.

The assay is the same for the next values; noted with them: 96 h, test concentration 0.15 ppm, 4 days assessment, 27° C., read-out: motility inhibition.
For `CC(COc1ccc(C(N)=S)cc1C(F)(F)F)(NC(=O)c1ccc(OC(F)(F)F)cc1)C(N)=S` (stereo not drawn) [Compound 4, N-[1-Methyl-1-thiocarbamoyl-2-(4-thiocarbamoyl-2-trifluoromethylphenoxy)-ethyl]-4-trifluoromethoxybenzamide], the inhibition at 0.15 ppm is at least 90%.

Take `CC(COc1cc(C(N)=S)ccc1C(F)(F)F)(NC(=O)c1ccc(OC(F)(F)F)cc1)C(N)=S` (stereo not drawn) [Compound 8]: the inhibition at 0.15 ppm was at least 90%.

Turning to `CC(COc1cc(C(N)=S)ccc1C(F)(F)F)(NC(=O)c1ccc(SC(F)(F)F)cc1)C(N)=S` (stereo not drawn) [Compound 6], the inhibition at 0.15 ppm is at least 90%.

`CC(COc1ccc(C#N)cc1C(F)(F)F)(NC(=O)c1ccc(OC(F)(F)F)cc1)C(N)=S` (stereo not drawn) [Compound 3, N-[2-(4-Cyano-2-trifluoromethylphenoxy)-1-methyl-1-thiocarbamoyl-ethyl]-4-trifluoromethoxybenzamide]: the inhibition at 0.15 ppm is at least 90%.
